Patent US11358953B2, “Functionalized peptides as antiviral agents” (ENANTA PHARMACEUTICALS, INC., priority 2020, dated 2022)

Biological target: SARS-CoV-2 3CL-protease (Severe acute respiratory syndrome coronavirus 2 (2019-nCoV) (SARS-CoV-2), UniProt P0DTD1)
Assay: SARS-CoV-2 3C-like (3CL) protease fluorescence assay (FRET)
Format: biochemical
Conditions: recombinant SARS-CoV-2 3CL-protease 10 nM, 30 min preincubation at RT, substrate 40 μM, duplicate

First: COc1cccc2[nH]c(C(=O)N3C[C@@H]4CCC[C@@H]4[C@H]3C(=O)N[C@@H](C[C@@H]3CCNC3=O)C(=O)CCl)cc12 [Ex1, (1S,3aR,6aS)—N—((S)-4-chloro-3-oxo-1-((S)-2-oxopyrrolidin-3-yl)butan-2-yl)-2-(4-methoxy-1H-indole-2-carbonyl)octahydrocyclopenta[c]pyrrole-1-carboxamide]
Second: COc1cccc2[nH]c(C(=O)N3C[C@@H]4CCC[C@@H]4[C@H]3C(=O)N[C@@H](C[C@@H]3CCNC3=O)C(=O)COC(=O)c3c(Cl)cccc3Cl)cc12 [Ex2, (S)-3-((1S,3aR,6aS)-2-(4-methoxy-1H-indole-2-carbonyl)octahydrocyclopenta[c]pyrrole-1-carboxamido)-2-oxo-4-((S)-2-oxopyrrolidin-3-yl)butyl 2,6-dichlorobenzoate]
The IC50 of the first is higher: 100 to 1000 nM for the first, < 100 nM for the second. The second is the more potent here.

`COc1cccc2[nH]c(C(=O)N3C[C@@H]4CCC[C@@H]4[C@H]3C(=O)N[C@@H](C[C@@H]3CCNC3=O)C(=O)C(=O)NC3CCCCC3)cc12` [Ex9, (1S,3aR,6aS)—N—((S)-4-(cyclohexylamino)-3,4-dioxo-1-((S)-2-oxopyrrolidin-3-yl)butan-2-yl)-2-(4-methoxy-1H-indole-2-carbonyl)octahydrocyclopenta[c]pyrrole-1-carboxamide] and `O=C(NC1CCCCC1)C(=O)[C@H](C[C@@H]1CCNC1=O)NC(=O)[C@@H]1[C@H]2CCC[C@H]2CN1C(=O)c1cc2c(OC(F)F)cccc2[nH]1` [Ex8, (1S,3aR,6aS)—N—((S)-4-(cyclohexylamino)-3,4-dioxo-1-((S)-2-oxopyrrolidin-3-yl)butan-2-yl)-2-(4-(difluoromethoxy)-1H-indole-2-carbonyl)octahydrocyclopenta[c]pyrrole-1-carboxamide] cannot be ordered by IC50: < 100 nM for the first, < 100 nM for the second.

`CC1(C)[C@@H]2[C@@H](C(=O)N[C@H](C#N)C[C@@H]3CCNC3=O)N(C(=O)c3cc4cc(F)c(F)cc4[nH]3)C[C@@H]21` [Ex17, (1R,2S,5S)—N—((S)-1-cyano-2-((S)-2-oxopyrrolidin-3-yl)ethyl)-3-(5,6-difluoro-1H-indole-2-carbonyl)-6,6-dimethyl-3-azabicyclo[3.1.0]hexane-2-carboxamide] and `CC1(C)[C@@H]2[C@@H](C(=O)N[C@H](C#N)C[C@@H]3CCNC3=O)N(C(=O)c3cc4c(F)cc(F)cc4[nH]3)C[C@@H]21` [Ex18, (1R,2S,5S)—N—((S)-1-cyano-2-((S)-2-oxopyrrolidin-3-yl)ethyl)-3-(4,6-difluoro-1H-indole-2-carbonyl)-6,6-dimethyl-3-azabicyclo[3.1.0]hexane-2-carboxamide] fall in the same range of IC50: 100 to 1000 nM for the first, 100 to 1000 nM for the second.

`CC(C)C(=O)N[C@H](C(=O)N1C[C@H]2[C@@H]([C@H]1C(=O)N[C@H](C#N)C[C@@H]1CCNC1=O)C2(C)C)C(C)(C)C` [Ex27, (1R,2S,5S)—N—((S)-1-cyano-2-((S)-2-oxopyrrolidin-3-yl)ethyl)-3-((S)-2-isobutyramido-3,3-dimethylbutanoyl)-6,6-dimethyl-3-azabicyclo[3.1.0]hexane-2-carboxamide] and `CCC(=O)N[C@H](C(=O)N1C[C@H]2[C@@H]([C@H]1C(=O)N[C@H](C#N)C[C@@H]1CCNC1=O)C2(C)C)C(C)(C)C` [Ex26, (1R,2S,5S)—N—((S)-1-cyano-2-((S)-2-oxopyrrolidin-3-yl)ethyl)-3-((S)-3,3-dimethyl-2-propionamidobutanoyl)-6,6-dimethyl-3-azabicyclo[3.1.0]hexane-2-carboxamide] cannot be ordered by IC50: < 100 nM for the first, < 100 nM for the second.

First: O=C[C@H](C[C@@H]1CCNC1=O)NC(=O)[C@@H]1[C@H]2CCC[C@H]2CN1C(=O)c1cc2c(OC(F)F)cccc2[nH]1 [Ex5, (1S,3aR,6aS)-2-(4-(difluoromethoxy)-1H-indole-2-carbonyl)-N—((S)-1-oxo-3-((S)-2-oxopyrrolidin-3-yl)propan-2-yl)octahydrocyclopenta[c]pyrrole-1-carboxamide]
Second: N#C[C@H](C[C@@H]1CCNC1=O)NC(=O)[C@@H]1[C@H]2CCC[C@H]2CN1C(=O)c1cc2c(OC(F)F)cccc2[nH]1 [Ex3, (1S,3aR,6aS)—N—((S)-1-cyano-2-((S)-2-oxopyrrolidin-3-yl)ethyl)-2-(4-(difluoromethoxy)-1H-indole-2-carbonyl)octahydrocyclopenta[c]pyrrole-1-carboxamide]
The IC50 of the first is lower: < 100 nM for the first, 100 to 1000 nM for the second.

`N#C[C@H](C[C@@H]1CCNC1=O)NC(=O)[C@@H]1C[C@H](Oc2ccccc2)CN1C(=O)c1cc2c(OC(F)F)cccc2[nH]1` [Ex19, (2S,4S)—N—((S)-1-cyano-2-((S)-2-oxopyrrolidin-3-yl)ethyl)-1-(4-(difluoromethoxy)-1H-indole-2-carbonyl)-4-phenoxypyrrolidine-2-carboxamide] and `N#C[C@H](C[C@@H]1CCNC1=O)NC(=O)[C@@H]1CCCN1C(=O)c1cc2c(OC(F)F)cccc2[nH]1` [Ex12, (S)—N—((S)-1-cyano-2-((S)-2-oxopyrrolidin-3-yl)ethyl)-1-(4-(difluoromethoxy)-1H-indole-2-carbonyl)pyrrolidine-2-carboxamide] cannot be ordered by IC50: > 1000 nM for the first, > 1000 nM for the second.

`CC1(C)[C@@H]2[C@@H](C(=O)N[C@H](C#N)C[C@@H]3CCNC3=O)N(C(=O)c3cc4c(F)ccc(F)c4[nH]3)C[C@@H]21` [Ex20, (1R,2S,5S)—N—((S)-1-cyano-2-((S)-2-oxopyrrolidin-3-yl)ethyl)-3-(4,7-difluoro-1H-indole-2-carbonyl)-6,6-dimethyl-3-azabicyclo[3.1.0]hexane-2-carboxamide] and `CC1(C)C2CN(C(=O)c3cc4c(OC(F)F)cccc4[nH]3)[C@H](C(=O)N[C@H](C#N)C[C@@H]3CCNC3=O)C21` (stereo in doubt) [Ex11, (1S,2S,5R)—N—((S)-1-cyano-2-((S)-2-oxopyrrolidin-3-yl)ethyl)-3-(4-(difluoromethoxy)-1H-indole-2-carbonyl)-6,6-dimethyl-3-azabicyclo[3.1.0]hexane-2-carboxamide] fall in the same range of IC50: 100 to 1000 nM for the first, 100 to 1000 nM for the second.

First: CC1(C)[C@@H]2[C@@H](C(=O)N[C@H](C#N)C[C@@H]3CCNC3=O)N(C(=O)c3cc4c(Cl)cccc4o3)C[C@@H]21 [Ex22, (1R,2S,5S)-3-(4-chlorobenzofuran-2-carbonyl)-N—((S)-1-cyano-2-((S)-2-oxopyrrolidin-3-yl)ethyl)-6,6-dimethyl-3-azabicyclo[3.1.0]hexane-2-carboxamide]
Second: CC(C)(C)[C@H](NC(=O)Cc1ccccc1)C(=O)N1C[C@H]2[C@@H]([C@H]1C(=O)N[C@H](C#N)C[C@@H]1CCNC1=O)C2(C)C [Ex24, (1R,2S,5S)—N—((S)-1-cyano-2-((S)-2-oxopyrrolidin-3-yl)ethyl)-3-((S)-3,3-dimethyl-2-(2-phenylacetamido)butanoyl)-6,6-dimethyl-3-azabicyclo[3.1.0]hexane-2-carboxamide]
The IC50 of the first is higher: > 1000 nM for the first, < 100 nM for the second.

`CC(C)(C)C(=O)N[C@H](C(=O)N1C[C@H]2[C@@H]([C@H]1C(=O)N[C@H](C#N)C[C@@H]1CCNC1=O)C2(C)C)C(C)(C)C` [Ex28, (1R,2S,5S)—N—((S)-1-cyano-2-((S)-2-oxopyrrolidin-3-yl)ethyl)-3-((S)-3,3-dimethyl-2-pivalamidobutanoyl)-6,6-dimethyl-3-azabicyclo[3.1.0]hexane-2-carboxamide] and `O=C(NCc1ccccc1)C(=O)[C@H](C[C@@H]1CCNC1=O)NC(=O)[C@@H]1[C@H]2CCC[C@H]2CN1C(=O)c1cc2c(OC(F)F)cccc2[nH]1` [Ex15, (1S,3aR,6aS)—N—((S)-4-(benzylamino)-3,4-dioxo-1-((S)-2-oxopyrrolidin-3-yl)butan-2-yl)-2-(4-(difluoromethoxy)-1H-indole-2-carbonyl)octahydrocyclopenta[c]pyrrole-1-carboxamide] cannot be ordered by IC50: < 100 nM for the first, < 100 nM for the second.
